Measurements taken from ChEMBL document CHEMBL1909294, “Translating clinical findings into knowledge in drug safety evaluation--drug induced liver injury prediction system (DILIps)” (PLoS Comput Biol, 2011).

Experiments:
Hepatotoxicity [1] = test system: Hepatotoxicity;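 on HepSE bilirubinemia: bilirubinemia hepatic side effect score drawn from the DILIps training data, a prediction system for drug-induced liver injury; call rule not given here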;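 on HepSE cholelithiasis: hepatic side effect score for cholelithiasis, drawn from the DILIps training data for predicting drug-induced liver injury; call rule not given here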;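 on HepSE cirrhosis: cirrhosis hepatic side effect score taken from the DILIps (drug-induced liver injury prediction) training set; call rule not given here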;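 on HepSE hepatomegaly: hepatic side effect score for hepatomegaly, taken from the training set of the DILIps drug-induced liver injury prediction system; call rule not given here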;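 on HepSE jaundice: Jaundice-related hepatic side-effect score drawn from the training data of the DILIps (drug-induced liver injury prediction system); call rule not given here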; on HepSE liver disease: call rule not given here;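 on HepSE liver function tests abnormal: hepatic side effect score taken from the DILIps (drug-induced liver injury prediction system) training data, here covering abnormal liver function test findings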
Hepatotoxicity [2] = test system: Hepatotoxicity; remark: listed apart in the source;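 on HepSE bilirubinemia: bilirubinemia hepatic side effect score drawn from the DILIps training data, a prediction system for drug-induced liver injury; call rule not given here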;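 on HepSE cholelithiasis: hepatic side effect score for cholelithiasis, drawn from the DILIps training data for predicting drug-induced liver injury; call rule not given here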;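 on HepSE hepatomegaly: hepatic side effect score for hepatomegaly, taken from the training set of the DILIps drug-induced liver injury prediction system; call rule not given here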;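 on HepSE jaundice: Jaundice-related hepatic side-effect score drawn from the training data of the DILIps (drug-induced liver injury prediction system); call rule not given here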; on HepSE liver disease: call rule not given here;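 on HepSE liver function tests abnormal: hepatic side effect score taken from the DILIps (drug-induced liver injury prediction system) training data, here covering abnormal liver function test findings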
Hepatotoxicity [3] = test system: Hepatotoxicity; remark: listed apart in the source;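 on HepSE bilirubinemia: bilirubinemia hepatic side effect score drawn from the DILIps training data, a prediction system for drug-induced liver injury; call rule not given here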;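 on HepSE cholelithiasis: hepatic side effect score for cholelithiasis, drawn from the DILIps training data for predicting drug-induced liver injury; call rule not given here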;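 on HepSE hepatomegaly: hepatic side effect score for hepatomegaly, taken from the training set of the DILIps drug-induced liver injury prediction system; call rule not given here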;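 on HepSE jaundice: Jaundice-related hepatic side-effect score drawn from the training data of the DILIps (drug-induced liver injury prediction system); call rule not given here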; on HepSE liver disease: call rule not given here;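 on HepSE liver function tests abnormal: hepatic side effect score taken from the DILIps (drug-induced liver injury prediction system) training data, here covering abnormal liver function test findings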
Hepatotoxicity [4] = test system: Hepatotoxicity; remark: listed apart in the source;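 on HepSE bilirubinemia: bilirubinemia hepatic side effect score drawn from the DILIps training data, a prediction system for drug-induced liver injury; call rule not given here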;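 on HepSE cholelithiasis: hepatic side effect score for cholelithiasis, drawn from the DILIps training data for predicting drug-induced liver injury; call rule not given here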;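 on HepSE hepatomegaly: hepatic side effect score for hepatomegaly, taken from the training set of the DILIps drug-induced liver injury prediction system; call rule not given here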;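 on HepSE jaundice: Jaundice-related hepatic side-effect score drawn from the training data of the DILIps (drug-induced liver injury prediction system); call rule not given here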; on HepSE liver disease: call rule not given here;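 on HepSE liver function tests abnormal: hepatic side effect score taken from the DILIps (drug-induced liver injury prediction system) training data, here covering abnormal liver function test findings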
Hepatotoxicity [5] = test system: Hepatotoxicity; remark: listed apart in the source; on HepSE liver disease: call rule not given here
Hepatotoxicity [6] = test system: Hepatotoxicity; remark: listed apart in the source; on HepSE liver disease: call rule not given here
Hepatotoxicity [7] = test system: Hepatotoxicity; remark: listed apart in the source
Hepatotoxicity [8] = test system: Hepatotoxicity; remark: listed apart in the source
Hepatotoxicity [9] = test system: Hepatotoxicity; remark: listed apart in the source
Hepatotoxicity [10] = test system: Hepatotoxicity; remark: listed apart in the source
Hepatotoxicity [11] = test system: Hepatotoxicity; remark: listed apart in the source
Hepatotoxicity [12] = test system: Hepatotoxicity; remark: listed apart in the source
Hepatotoxicity [13] = test system: Hepatotoxicity; remark: listed apart in the source
Hepatotoxicity [14] = test system: Hepatotoxicity; remark: listed apart in the source

COCCOC(=O)C1=C(C)NC(C)=C(C(=O)OC(C)C)C1c1cccc([N+](=O)[O-])c1 (configuration not stated) [NIMODIPINE]
2: HepSE_Combined Scores (Hepatotoxicity [10])
0: HepSE_cholelithiasis (Hepatotoxicity [1]) | HepSE_liver function tests abnormal (Hepatotoxicity [2]) | HepSE_liver disease (Hepatotoxicity [3]) | HepSE_bilirubinemia (Hepatotoxicity [4]) | HepSE_hepatomegaly (Hepatotoxicity [6]) | HepSE_hepatic necrosis (Hepatotoxicity [7]) | HepSE_cirrhosis (Hepatotoxicity [8]) | HepSE_liver fatty (Hepatotoxicity [9]) | HepSE_elevated liver function tests (Hepatotoxicity [12]) | HepSE_cholecystitis (Hepatotoxicity [13]) | HepSE_hepatic failure (Hepatotoxicity [14])
1: HepSE_jaundice (Hepatotoxicity [5]) | HepSE_hepatitis (Hepatotoxicity [11])

O=C1CN=C(c2ccccc2)c2cc([N+](=O)[O-])ccc2N1 [NITRAZEPAM]
0: HepSE_cholelithiasis (Hepatotoxicity [1]) | HepSE_liver function tests abnormal (Hepatotoxicity [2]) | HepSE_liver disease (Hepatotoxicity [3]) | HepSE_bilirubinemia (Hepatotoxicity [4]) | HepSE_jaundice (Hepatotoxicity [5]) | HepSE_hepatomegaly (Hepatotoxicity [6]) | HepSE_hepatic necrosis (Hepatotoxicity [7]) | HepSE_cirrhosis (Hepatotoxicity [8]) | HepSE_liver fatty (Hepatotoxicity [9]) | HepSE_Combined Scores (Hepatotoxicity [10]) | HepSE_hepatitis (Hepatotoxicity [11]) | HepSE_elevated liver function tests (Hepatotoxicity [12]) | HepSE_cholecystitis (Hepatotoxicity [13]) | HepSE_hepatic failure (Hepatotoxicity [14])

[N]=O [NITRIC OXIDE]
0: HepSE_cholelithiasis (Hepatotoxicity [1]) | HepSE_liver function tests abnormal (Hepatotoxicity [2]) | HepSE_liver disease (Hepatotoxicity [3]) | HepSE_bilirubinemia (Hepatotoxicity [4]) | HepSE_jaundice (Hepatotoxicity [5]) | HepSE_hepatomegaly (Hepatotoxicity [6]) | HepSE_hepatic necrosis (Hepatotoxicity [7]) | HepSE_cirrhosis (Hepatotoxicity [8]) | HepSE_liver fatty (Hepatotoxicity [9]) | HepSE_Combined Scores (Hepatotoxicity [10]) | HepSE_hepatitis (Hepatotoxicity [11]) | HepSE_elevated liver function tests (Hepatotoxicity [12]) | HepSE_cholecystitis (Hepatotoxicity [13]) | HepSE_hepatic failure (Hepatotoxicity [14])

O=C1CN(/N=C/c2ccc([N+](=O)[O-])o2)C(=O)N1 [NITROFURANTOIN]
3: HepSE_Combined Scores (Hepatotoxicity [10]; Liver)
0: HepSE_cholelithiasis (Hepatotoxicity [1]; Liver) | HepSE_liver function tests abnormal (Hepatotoxicity [2]; Liver) | HepSE_liver disease (Hepatotoxicity [3]; Liver) | HepSE_bilirubinemia (Hepatotoxicity [4]; Liver) | HepSE_hepatomegaly (Hepatotoxicity [6]; Liver) | HepSE_cirrhosis (Hepatotoxicity [8]; Liver) | HepSE_liver fatty (Hepatotoxicity [9]; Liver) | HepSE_elevated liver function tests (Hepatotoxicity [12]; Liver) | HepSE_cholecystitis (Hepatotoxicity [13]; Liver) | HepSE_hepatic failure (Hepatotoxicity [14]; Liver)
1: HepSE_jaundice (Hepatotoxicity [5]; Liver) | HepSE_hepatic necrosis (Hepatotoxicity [7]; Liver) | HepSE_hepatitis (Hepatotoxicity [11]; Liver)

O=[N+]([O-])OCC(CO[N+](=O)[O-])O[N+](=O)[O-] [NITROGLYCERIN]
0: HepSE_cholelithiasis (Hepatotoxicity [1]) | HepSE_liver function tests abnormal (Hepatotoxicity [2]) | HepSE_liver disease (Hepatotoxicity [3]) | HepSE_bilirubinemia (Hepatotoxicity [4]) | HepSE_jaundice (Hepatotoxicity [5]) | HepSE_hepatomegaly (Hepatotoxicity [6]) | HepSE_hepatic necrosis (Hepatotoxicity [7]) | HepSE_cirrhosis (Hepatotoxicity [8]) | HepSE_liver fatty (Hepatotoxicity [9]) | HepSE_Combined Scores (Hepatotoxicity [10]) | HepSE_hepatitis (Hepatotoxicity [11]) | HepSE_elevated liver function tests (Hepatotoxicity [12]) | HepSE_cholecystitis (Hepatotoxicity [13]) | HepSE_hepatic failure (Hepatotoxicity [14])

CNC(=C[N+](=O)[O-])NCCSCc1csc(CN(C)C)n1 [NIZATIDINE]
1: HepSE_jaundice (Hepatotoxicity [5]) | HepSE_hepatitis (Hepatotoxicity [11])
2: HepSE_Combined Scores (Hepatotoxicity [10])
0: HepSE_cholelithiasis (Hepatotoxicity [1]) | HepSE_liver function tests abnormal (Hepatotoxicity [2]) | HepSE_liver disease (Hepatotoxicity [3]) | HepSE_bilirubinemia (Hepatotoxicity [4]) | HepSE_hepatomegaly (Hepatotoxicity [6]) | HepSE_hepatic necrosis (Hepatotoxicity [7]) | HepSE_cirrhosis (Hepatotoxicity [8]) | HepSE_liver fatty (Hepatotoxicity [9]) | HepSE_elevated liver function tests (Hepatotoxicity [12]) | HepSE_cholecystitis (Hepatotoxicity [13]) | HepSE_hepatic failure (Hepatotoxicity [14])

NC[C@H](O)c1ccc(O)c(O)c1 [NOREPINEPHRINE]
0: HepSE_cholelithiasis (Hepatotoxicity [1]) | HepSE_liver function tests abnormal (Hepatotoxicity [2]) | HepSE_liver disease (Hepatotoxicity [3]) | HepSE_bilirubinemia (Hepatotoxicity [4]) | HepSE_jaundice (Hepatotoxicity [5]) | HepSE_hepatomegaly (Hepatotoxicity [6]) | HepSE_hepatic necrosis (Hepatotoxicity [7]) | HepSE_cirrhosis (Hepatotoxicity [8]) | HepSE_liver fatty (Hepatotoxicity [9]) | HepSE_Combined Scores (Hepatotoxicity [10]) | HepSE_hepatitis (Hepatotoxicity [11]) | HepSE_elevated liver function tests (Hepatotoxicity [12]) | HepSE_cholecystitis (Hepatotoxicity [13]) | HepSE_hepatic failure (Hepatotoxicity [14])

CCn1cc(C(=O)O)c(=O)c2cc(F)c(N3CCNCC3)cc21 [NORFLOXACIN]
1: HepSE_jaundice (Hepatotoxicity [5]; Liver) | HepSE_hepatic necrosis (Hepatotoxicity [7]; Liver) | HepSE_hepatitis (Hepatotoxicity [11]; Liver) | HepSE_elevated liver function tests (Hepatotoxicity [12]; Liver) | HepSE_hepatic failure (Hepatotoxicity [14]; Liver)
5: HepSE_Combined Scores (Hepatotoxicity [10]; Liver)
0: HepSE_cholelithiasis (Hepatotoxicity [1]; Liver) | HepSE_liver function tests abnormal (Hepatotoxicity [2]; Liver) | HepSE_liver disease (Hepatotoxicity [3]; Liver) | HepSE_bilirubinemia (Hepatotoxicity [4]; Liver) | HepSE_hepatomegaly (Hepatotoxicity [6]; Liver) | HepSE_cirrhosis (Hepatotoxicity [8]; Liver) | HepSE_liver fatty (Hepatotoxicity [9]; Liver) | HepSE_cholecystitis (Hepatotoxicity [13]; Liver)

CNCCC=C1c2ccccc2CCc2ccccc21 [NORTRIPTYLINE]
1: HepSE_jaundice (Hepatotoxicity [5]; Liver) | HepSE_hepatic necrosis (Hepatotoxicity [7]; Liver) | HepSE_hepatitis (Hepatotoxicity [11]; Liver)
3: HepSE_Combined Scores (Hepatotoxicity [10]; Liver)
0: HepSE_cholelithiasis (Hepatotoxicity [1]; Liver) | HepSE_liver function tests abnormal (Hepatotoxicity [2]; Liver) | HepSE_liver disease (Hepatotoxicity [3]; Liver) | HepSE_bilirubinemia (Hepatotoxicity [4]; Liver) | HepSE_hepatomegaly (Hepatotoxicity [6]; Liver) | HepSE_cirrhosis (Hepatotoxicity [8]; Liver) | HepSE_liver fatty (Hepatotoxicity [9]; Liver) | HepSE_elevated liver function tests (Hepatotoxicity [12]; Liver) | HepSE_cholecystitis (Hepatotoxicity [13]; Liver) | HepSE_hepatic failure (Hepatotoxicity [14]; Liver)

CC1COc2c(N3CCN(C)CC3)c(F)cc3c(=O)c(C(=O)O)cn1c23 (configuration not stated) [OFLOXACIN]
6: HepSE_Combined Scores (Hepatotoxicity [10])
0: HepSE_liver function tests abnormal (Hepatotoxicity [2]) | HepSE_liver disease (Hepatotoxicity [3]) | HepSE_bilirubinemia (Hepatotoxicity [4]) | HepSE_hepatomegaly (Hepatotoxicity [6]) | HepSE_cirrhosis (Hepatotoxicity [8]) | HepSE_liver fatty (Hepatotoxicity [9]) | HepSE_elevated liver function tests (Hepatotoxicity [12])
1: HepSE_cholelithiasis (Hepatotoxicity [1]) | HepSE_jaundice (Hepatotoxicity [5]) | HepSE_hepatic necrosis (Hepatotoxicity [7]) | HepSE_hepatitis (Hepatotoxicity [11]) | HepSE_cholecystitis (Hepatotoxicity [13]) | HepSE_hepatic failure (Hepatotoxicity [14])

Cc1cc2c(s1)Nc1ccccc1N=C2N1CCN(C)CC1 [OLANZAPINE]
1: HepSE_bilirubinemia (Hepatotoxicity [4]) | HepSE_jaundice (Hepatotoxicity [5]) | HepSE_liver fatty (Hepatotoxicity [9]) | HepSE_hepatitis (Hepatotoxicity [11])
4: HepSE_Combined Scores (Hepatotoxicity [10])
0: HepSE_cholelithiasis (Hepatotoxicity [1]) | HepSE_liver function tests abnormal (Hepatotoxicity [2]) | HepSE_liver disease (Hepatotoxicity [3]) | HepSE_hepatomegaly (Hepatotoxicity [6]) | HepSE_hepatic necrosis (Hepatotoxicity [7]) | HepSE_cirrhosis (Hepatotoxicity [8]) | HepSE_elevated liver function tests (Hepatotoxicity [12]) | HepSE_cholecystitis (Hepatotoxicity [13]) | HepSE_hepatic failure (Hepatotoxicity [14])

CCCc1nc(C(C)(C)O)c(C(=O)OCc2oc(=O)oc2C)n1Cc1ccc(-c2ccccc2-c2nnn[nH]2)cc1 [OLMESARTAN MEDOXOMIL]
0: HepSE_cholelithiasis (Hepatotoxicity [1]) | HepSE_liver function tests abnormal (Hepatotoxicity [2]) | HepSE_liver disease (Hepatotoxicity [3]) | HepSE_bilirubinemia (Hepatotoxicity [4]) | HepSE_hepatomegaly (Hepatotoxicity [6]) | HepSE_hepatic necrosis (Hepatotoxicity [7]) | HepSE_cirrhosis (Hepatotoxicity [8]) | HepSE_liver fatty (Hepatotoxicity [9]) | HepSE_hepatitis (Hepatotoxicity [11]) | HepSE_elevated liver function tests (Hepatotoxicity [12]) | HepSE_cholecystitis (Hepatotoxicity [13]) | HepSE_hepatic failure (Hepatotoxicity [14])
1: HepSE_jaundice (Hepatotoxicity [5]) | HepSE_Combined Scores (Hepatotoxicity [10])

CN(C)CC/C=C1/c2ccccc2COc2ccc(CC(=O)O)cc21 [OLOPATADINE]
0: HepSE_cholelithiasis (Hepatotoxicity [1]) | HepSE_liver function tests abnormal (Hepatotoxicity [2]) | HepSE_liver disease (Hepatotoxicity [3]) | HepSE_bilirubinemia (Hepatotoxicity [4]) | HepSE_jaundice (Hepatotoxicity [5]) | HepSE_hepatomegaly (Hepatotoxicity [6]) | HepSE_hepatic necrosis (Hepatotoxicity [7]) | HepSE_cirrhosis (Hepatotoxicity [8]) | HepSE_liver fatty (Hepatotoxicity [9]) | HepSE_Combined Scores (Hepatotoxicity [10]) | HepSE_hepatitis (Hepatotoxicity [11]) | HepSE_elevated liver function tests (Hepatotoxicity [12]) | HepSE_cholecystitis (Hepatotoxicity [13]) | HepSE_hepatic failure (Hepatotoxicity [14])
